{"source": "patent US12290527B2", "about": "“Compositions and methods for reducing major thrombotic events in cancer patients” (Beth Israel Deaconess Medical Center, Inc., priority 2018, dated 2025)", "key": {"D-dimer": {"system": "D-dimer", "test": "Plasma D-dimer (Asserachrom D-Di ELISA), phase II trial in cancer patients", "type": "in vivo, human", "protocol": "A multi-center, multi-dose phase II trial was conducted to evaluate, among other markers and readouts, the efficacy of targeting protein disulfide isomerase (PDI) along with soluble P-selectin with isoquercetin to reduce the hypercoagulability in cancer patients at high risk for venous thromboembolism (VTE). Patients received isoquercetin at 500 mg (cohort A) or 1000 mg (cohort B) daily for 56 days with laboratory assays at the beginning and at completion of study (along with duplex ultrasound). The primary endpoint was a reduction in D-dimer and the primary clinical endpoint included pulmonary embolism or proximal deep vein thrombosis, and also included measuring the level of soluble P-selectin. (See, Zwicker et al., JCI Insight.2019; 4(4):e125851.)\nThe primary endpoint of the study was comparison of plasma D-dimer at baseline and end-of-study. D-dimer is liberated from cross-linked fibrin following […] degradation. D-dimer is the most validated and commonly utilized laboratory assay in the clinic to detect deep vein thrombosis. In patients with advanced cancer, plasma D-dimer levels are commonly elevated and correlate with an increased risk for developing of VTE.\nParticipants were sequentially enrolled into two dosing cohorts: Cohort A (isoquercetin 500 mg) and Cohort B (isoquercetin 1000 mg). Isoquercetin was supplied in capsules containing 250 mg of isoquercetin each with 10 mg added as overage to guarantee a minimum of 250 mg of isoquercetin per capsule with added Vitamin C and Vitamin B3 by Quercegen Pharmaceuticals LLC (Boston, MA). The drug product capsules were manufactured by Pharmavize NV, Kleinmoer 4, 9030 Mariakerke, Belgium.\nThe ratio of components in the capsules was: 1:0.25:0.02 of isoquercetin, vitamin C, and vitamin B3, respectively. It is noted that folic acid can optionally be present in the isoquercetin composition. Isoquercetin was taken orally daily for a total of 56 days. The first 5 patients of each cohort were monitored for evidence of toxicity prior (≥1 grade 3 or higher toxicity possibly related to isoquercetin) prior to the subsequent enrollment of 25 patients into each cohort. Patients were monitored for development of a venous thromboembolic event throughout the study including a bilateral lower extremity duplex ultrasound at end of study visit (day 56±5). […]\nBlood was drawn by peripheral venipuncture into 3.2% citrate. […] D-dimer was measured centrally using Asserrachrom D-Di ELISA, considered the reference standard assay for D-dimer (Stago, France) (Meyer G. et al., Blood Coagulation & Fibrinolysis. 1998; 9(7):603-8.)."}, "[1]": {"system": "platelet-dependent thrombin generation", "test": "Platelet-dependent thrombin generation assay on patient plasma", "type": "in vivo, human", "conditions": "follow-up vs baseline", "text": "The platelet-dependent thrombin generation assay measures thrombin generation following platelet activation and requires PDI. […] Correlation between PDI inhibitory activity in plasma and platelet-dependent thrombin generation confirmed the PDI-dependency of thrombin generation (Spearman coefficient 0.29, P=0.004). There was significant correlation between increased plasma PDI inhibitory activity and decreased thrombin generation (Pearson correlation coefficient 0.45, P=0.002)\nPlatelet-dependent thrombin generation was performed according to previously published methodology (Stopa J D et al., JCI insight. 2017;2(1):e89373; Jurk K et al. J Thromb Haemost. 2011; 9(11):2278-90). Briefly, platelet-free plasma was mixed with donor platelet-rich plasma diluted to a platelet concentration of 250,000 platelets per microliter in the presence of 5 mM GPRP and 6 mM CaCl2), and then stimulated with 0.1 U/ml of thrombin. Samples were incubated for 90 min at room temperature with rotation, and thrombin levels were measured using cleavage of a fluorescent thrombin-specific substrate (Haemtech SN-20 Boc-L-FPR-ANSNH-C2H5) by excitation at 352 nm and emission as a function of time at 470 nm. Rates of substrate cleavage were used to calculate the concentration of thrombin in each sample."}, "soluble P-selectin [2]": {"system": "soluble P-selectin", "test": "Soluble P-selectin (CD62) in plasma, commercial ELISA", "type": "in vivo, human", "conditions": "for median change in soluble P-selectin: end-of-treatment vs baseline plasma", "text": "P-selectin is a transmembrane adhesion receptor that is externalized from α-granules in platelets and Weibel-Palade bodies in endothelial cells following cell activation. P-selectin can be shed from the cell surface following externalization and P-selectin shedding is increased in cardiovascular disease, sepsis, and cancer. […] As PDI inhibition alters platelet and endothelial reactivity, baseline versus end-of-treatment plasma levels of soluble P-selectin following treatment with isoquercetin was compared. As shown in FIG. 6A-FIG. 6B, there was no change in soluble P-selectin in Cohort A (FIG. 6A) (median change −0.3%, P=0.26).\n(§1) Measurement of soluble P-selectin (CD62) was performed centrally using a commercial ELISA (Invitrogen/ThermoFisher Scientific #BMS219-4) and prothrombin time and partial thromboplastin time according to standard manufacturer protocol on a Sago Start 4 instrument (STA-Neoplastine CI Plus 5 #00606, STA-PTT Automate 5 #00595)."}, "[3]": {"system": "prothrombin time and partial thromboplastin time", "test": "Standard coagulation assays (prothrombin time, partial thromboplastin time)", "type": "in vivo, human", "protocol": "as §1"}, "[4]": {"system": "patients with advanced cancer", "test": "Venous thromboembolism monitoring (clinical and end-of-study lower extremity ultrasound)", "type": "in vivo, human", "text": "Patients were monitored for the development of venous thromboembolism (VTE) throughout the two months of the study including an end-of-study bilateral lower extremity ultrasound to evaluate for asymptomatic lower extremity proximal DVT. Shown in FIG. 3A-FIG. 3D is the proportion of patients remaining free of VTE through the course of the study. […] There were three secondary VTE endpoints recorded in cohort A (FIG. 3C, two incidental catheter-associated DVT diagnosed with re-staging imaging and one lower extremity superficial venous clot). In cohort B (FIG. 3D), there were two secondary endpoint thrombotic events recorded (superficial venous clot of the lower extremity and incidental thrombosis observed in a lingular pulmonary vein on re-staging imaging).\n(§2) The ratio of components in the capsules was: 1:0.25:0.02 of isoquercetin, vitamin C, and vitamin B3, respectively. It is noted that folic acid can optionally be present in the isoquercetin composition. Isoquercetin was taken orally daily for a total of 56 days. The first 5 patients of each cohort were monitored for evidence of toxicity prior (≥1 grade 3 or higher toxicity possibly related to isoquercetin) prior to the subsequent enrollment of 25 patients into each cohort. Patients were monitored for development of a venous thromboembolic event throughout the study including a bilateral lower extremity duplex ultrasound at end of study visit (day 56±5). Participants were taken off study if they developed an intercurrent illness that prevented further administration; unacceptable adverse events; poor compliance; participant preference; VTE or condition requiring therapeutic anticoagulation; requirement for prophylactic anticoagulation for >7 consecutive days; or grade ≥3 hemorrhage or otherwise met the ISTH criteria for major hemorrhage. Doses were held for grade 2 hemorrhage or platelet count <50×10^9/L.\nThe primary VTE endpoint included any symptomatic proximal or distal deep vein thrombosis, symptomatic PE or fatal PE diagnosed by autopsy, asymptomatic proximal DVT diagnosed by protocol-specified ultrasound at end of study. All suspected VTE were assessed by an independent adjudication committee that included central radiologic review of images. Criteria for new VTE included any of the following: A) A new noncompressibility of lower extremity deep venous segments by compression ultrasound (distal lower extremity thrombus qualified for primary VTE endpoint only if symptomatic). […] All other venous or arterial events were recorded and analyzed as secondary endpoints. […]"}, "[5]": {"system": "patients with advanced cancer", "test": "Safety: hemorrhage (ISTH) and toxicities (CTCAE) in phase II trial", "type": "in vivo, human", "text": "as §2\nThe primary VTE endpoint included any symptomatic proximal or distal deep vein thrombosis, symptomatic PE or fatal PE diagnosed by autopsy, asymptomatic proximal DVT diagnosed by protocol-specified ultrasound at end of study. All suspected VTE were assessed by an independent adjudication committee that included central radiologic review of images. Criteria for new VTE included any of the following: A) A new noncompressibility of lower extremity deep venous segments by compression ultrasound (distal lower extremity thrombus qualified for primary VTE endpoint only if symptomatic). B) Intraluminal defects in two or more views on pulmonary angiography, sudden contrast cut-off of one or more vessels greater than 2.5 mm in diameter on a pulmonary angiogram; a high probability VQ lung scan showing one or more segmental perfusion defects with corresponding normal ventilation (mismatch defect); or abnormal spiral CT showing thrombus in pulmonary vessels (subsegmental or larger). All other venous or arterial events were recorded and analyzed as secondary endpoints. Criteria for major hemorrhage was according to ISTH definition (Schulman S, and Kearon C. J Thromb Haemost. 2005; 3(4):692-4). All toxicities were graded according NCI Common Terminology Criteria for Adverse Events (CTCAE). Study oversight was performed by an independent Data Safety Monitoring Committee at Dana Farber Harvard Cancer Center."}, "[6]": {"conditions": "isoquercetin at 500 mg; prior pharmacokinetic studies; cited from earlier work"}, "soluble P-selectin [7]": {"system": "soluble P-selectin", "conditions": "standard anticoagulants compared in words; cited from earlier work"}, "[8]": {"conditions": "Cohort A, isoquercetin 500 mg daily"}, "[9]": {"conditions": "Cohort B, isoquercetin 1000 mg daily"}}, "note": "Entries after “also recorded” stand apart in the source; their conditions may differ."}
{"smiles": "O=c1c(O[C@@H]2O[C@H](CO)[C@@H](O)[C@H](O)[C@H]2O)c(-c2ccc(O)c(O)c2)oc2cc(O)cc(O)c12", "note": "[isoquercetin, 2-(3,4-Dihydroxyphenyl)-5,7-dihydroxy-3-[(2S,3R,4S,5S,6R)-3,4,5-trihydroxy-6-(hydroxymethyl)oxan-2-yl]oxychromen-4-one]", "values": [{"measurement": "individuals with reduced D-dimer", "setting": "D-dimer; Cohort B, 1000 mg daily, paired samples", "result": "18 of 22"}, {"measurement": "median change in D-dimer", "setting": "D-dimer; Cohort B, isoquercetin 1000 mg daily oral, 56 days, baseline vs end-of-study, cancer patients", "result": "−21.9", "unit": "%"}, {"measurement": "median decrease of D-dimer plasma concentrations", "setting": "D-dimer; isoquercetin 1000 mg daily, 56 days, printed as decrease without sign", "result": 21.9, "unit": "%"}, {"measurement": "reduction of D-dimer levels (in words)", "setting": "D-dimer; lower dose, isoquercetin 500 mg", "result": "did not reduce D-dimer levels"}, {"measurement": "median change in platelet-dependent thrombin generation", "setting": "[1]; [8]", "result": "−31.1", "unit": "%"}, {"measurement": "median change in platelet-dependent thrombin generation", "setting": "[1]; [9]", "result": "−57.2", "unit": "%"}, {"measurement": "median change in soluble P-selectin", "setting": "soluble P-selectin [2]; [8]", "result": "−0.3", "unit": "%"}, {"measurement": "patients with decreased soluble P-selectin (in words)", "setting": "soluble P-selectin [2]; [9]", "result": "decreased in all patients except one"}, {"measurement": "median change in soluble P-selectin", "setting": "soluble P-selectin [2]; [9]", "result": "−57.9", "unit": "%"}, {"measurement": "mean PT at 2-months", "setting": "[3]; Cohort A, 500 mg daily, baseline 14.0 seconds", "result": 14.3, "unit": "s"}, {"measurement": "mean PTT at study completion", "setting": "[3]; Cohort A, 500 mg daily, baseline 49.6 seconds", "result": 45.6, "unit": "s"}, {"measurement": "mean PT at 2-months", "setting": "[3]; Cohort B, 1000 mg daily, baseline 15.1 seconds", "result": 15.2, "unit": "s"}, {"measurement": "mean PTT at 2-months", "setting": "[3]; Cohort B, 1000 mg daily, baseline 54.2 seconds", "result": 51.9, "unit": "s"}, {"measurement": "effects in standard coagulation assays (in words)", "setting": "[3]; following administration of isoquercetin, both cohorts", "result": "no effects detected"}, {"measurement": "secondary VTE endpoints recorded", "setting": "[4]; Cohort A, 500 mg daily, two catheter-associated DVT, one superficial venous clot", "result": "three"}, {"measurement": "secondary endpoint thrombotic events recorded", "setting": "[4]; Cohort B, 1000 mg daily, superficial venous clot, lingular pulmonary vein thrombosis", "result": "two"}, {"measurement": "primary VTE endpoint events", "setting": "[4]; both cohorts (500 mg and 1000 mg daily), 2-month study", "result": "no VTE that met criteria for the primary VTE endpoint; also recorded: no primary VTE endpoints observed"}, {"measurement": "proximal deep vein thrombosis, pulmonary emboli, or major hemorrhage observed", "setting": "[4]; treated patients, cancer population at higher risk for thrombosis and hemorrhage", "result": "none of the following were observed"}, {"measurement": "patients developing grade 1 epistaxis", "setting": "[5]; Cohort A, 500 mg daily", "result": "One"}, {"measurement": "patients developing non-severe gastrointestinal bleeding", "setting": "[5]; Cohort B, 1000 mg daily, grade 1 hemorrhoid and grade 2 rectal bleeding", "result": "two"}, {"measurement": "severe adverse events (grade 3 or 4) attributed to isoquercetin", "setting": "[5]; both cohorts", "result": "no severe adverse events (grade 3 or 4); also recorded: No grade 3 or 4 toxicities were reported"}, {"measurement": "major hemorrhages", "setting": "[5]; both cohorts, modified intention-to treat analyses", "result": "no major hemorrhages observed"}, {"measurement": "most commonly reported toxicities on study", "setting": "[5]; common toxicities of the concurrent chemotherapeutics", "result": "nausea and diarrhea"}, {"measurement": "deaths during the 2 months of follow-up", "setting": "[5]; following initiation of isoquercetin", "result": "no deaths reported"}, {"measurement": "plasma concentrations relative to IC50 of PDI activity in vitro", "setting": "[6]", "result": "fall below the inhibitory concentration (IC50) of PDI activity in vitro"}]}
{"smiles": "O=C(NC[C@H]1CN(c2ccc(N3CCOCC3=O)cc2)C(=O)O1)c1ccc(Cl)s1", "note": "[rivaroxaban]", "values": [{"measurement": "lowering of soluble P-selectin levels (activity shared with isoquercetin or not)", "setting": "soluble P-selectin [7]", "result": "not shared"}]}
{"smiles": "CC(=O)CC(c1ccccc1)c1c(O)c2ccccc2oc1=O", "note": "(stereo not drawn) [warfarin]", "values": [{"measurement": "lowering of soluble P-selectin levels (activity shared with isoquercetin or not)", "setting": "soluble P-selectin [7]", "result": "not shared"}]}
